Results from US8455537B2, “Estrogen receptor modulators and uses thereof” (University of Medicine and Dentistry of New Jersey, priority 2006, dated 2013).

Key:
ERα = target: T1, ERα (Homo sapiens, UniProt P03372); assay: NR peptide ERα ELISA kit, percentage of ER activation; format: biochemical; conditions: 25 μM sample; normalized to vehicle control (DMSO) = 100%; over 100% agonist, below 100% antagonist; MCF-7 nuclear extract as ER source
T1 construct: presence of both ER and PR in the MCF-7 nuclear extract; (kit); host or cells: MCF-7 nuclear extract
T1 sequence (P03372 1-595): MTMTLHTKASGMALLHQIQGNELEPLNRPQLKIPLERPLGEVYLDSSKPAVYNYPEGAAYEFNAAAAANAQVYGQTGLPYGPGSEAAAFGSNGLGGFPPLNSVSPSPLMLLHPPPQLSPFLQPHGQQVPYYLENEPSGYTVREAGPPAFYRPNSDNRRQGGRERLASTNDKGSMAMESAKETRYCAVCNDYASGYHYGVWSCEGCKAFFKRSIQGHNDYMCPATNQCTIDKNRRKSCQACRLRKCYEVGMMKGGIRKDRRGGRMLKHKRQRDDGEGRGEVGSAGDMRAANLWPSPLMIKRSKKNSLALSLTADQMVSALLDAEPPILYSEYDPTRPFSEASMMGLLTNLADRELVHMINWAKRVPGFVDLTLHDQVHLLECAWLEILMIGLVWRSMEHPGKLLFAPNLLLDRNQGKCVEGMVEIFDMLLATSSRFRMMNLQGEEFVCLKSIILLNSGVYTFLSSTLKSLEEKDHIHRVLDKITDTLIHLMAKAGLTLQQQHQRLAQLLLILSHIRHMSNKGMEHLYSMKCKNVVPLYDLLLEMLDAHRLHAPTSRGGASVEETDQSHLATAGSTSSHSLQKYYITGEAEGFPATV
Description: Relative units of light intensity for each test compound were normalized to the vehicle control (DMSO) and then expressed in percentage of ER activation. […] The data reported here represent results of three independent determinations in duplicate. Error bars represent the standard deviation of the three determinations.

[1] = target: T2, estrogen receptor alpha (ERα) (Homo sapiens, UniProt P03372); assay: Gel filtration displacement assay, competitive binding with 3H-estradiol; conditions: test compound 10 μM; 25 nM 3H-estradiol; 10 ng purified full-length ERα; no cold ligand = 100%; lower = stronger binding
T2 construct: 10 ng of purified full-length ERα (Active Motif, Carlsbad, Calif.); purchased Active Motif, Carlsbad, Calif
T2 sequence (P03372 1-595): T1 sequence (P03372 1-595)
Procedure: A gel filtration displacement assay for estrogen receptor alpha (ERα) was employed to assess competitive binding by ER antagonists among the test compounds in 10 μM. ER binding assays were conducted in duplicate in 50 mM Tris-HCl, pH7.5, 1 mM EDTA, 20% Glycerol and 1 mM DTT buffer. Radioligands that were used include [6, 7-^3H] estradiol (specific activity 44 Ci/mmol, Amersham Biosciences).
Following 1-hour incubation, assays were terminated by filtration through Whatman GF/B filters. […] Counts were normalized to the negative controls (no cold ligand) as the percentage of bound radiolabeled-estradiol remaining after separating bound radioligand from free radioligand. The negative controls were taken as 100% bound radioligand remaining. […] Results are reported as the average values of three independent experiments in duplicate. Error bars represent standard deviation of the three determinations (FIG. 2).

| Compound | percentage of ER activation (ERα) | percentage of bound radiolabeled-estradiol remaining [1] |
| --- | --- | --- |
| C[C@]12CC[C@@H]3c4ccc(O)c(O)c4CC[C@H]3[C@@H]1CC[C@@H]2O [4-hydroxy estradiol] | 196.3% | – |
| CCC(=O)C1=C(O)CCC(c2cccc(Oc3ccccc3)c2)C1=O (stereo not shown) [Compound A] | 53.1% | 65.9% |
| O=C1c2ccccc2C(=O)N1CN(C(=O)c1ccccc1)c1ccc(O)cc1 [Compound B] | 69% | 89.8% |
| CC#C[C@]1(O)CC[C@H]2[C@@H]3CCC4=CC(=O)CCC4=C3[C@@H](c3ccc(N(C)C)cc3)C[C@@]21C [mifepristone, reference compound] | 51.7% | > 100% |
